Laboratory results taken from patent US6664368B1, “Inhibition of nuclear import by backbone cyclic peptide analogs” (priority 1997, dated 2003).
Numbered stars: 1 amine (or outer) side, 2 acyl side, 3 side chain; on linkers, the order of the positions; unused ones are H or OH. Bridge positions count the residues as written; N and C are the ends. Square brackets hold non-standard residues; d marks the D form. Ends that are not written are not given here. Peptide text beside a SMILES is read from it. N(6-aminohexyl)Gly = O=C(CN(CCCCCCN[*:3])[*:1])[*:2]; X1 = CC(C)[C@H](NC(=O)CCCCC(=O)[*:1])C(=O)[*:2]

What was measured:
trypsin = assay: Stability to proteolytic cleavage by trypsin; assay type: in vitro ADME; conditions: trypsin solution; room temperature, TEA buffer pH 7.8, HPLC peak area; read-out: half life (t½) of digestion by trypsin (converted)
Method: Method: A mixture containing 0.05 ml of trypsin solution (8% w/v in HCl 0.001M), 0.5 ml TEA buffer pH=7.8 (Geiger, R.; Fritz, H. In Methods of enzymatic analysis; H. U. Bergmeyer, et al. Eds.; Weinheim: Verlag-chemie: 1984; pp 119-129) and 0.2 ml of peptide 22 (BCvir) solution in water (initial concentration of 1.25 mg/ml) was injected to HPLC (C3 column, gradient of 5-60% acetonitrile:TDW containing 0.1% TFA, 35 minutes) immediately after addition of the peptide (t=0). The mixture was incubated at room temperature and samples were injected every 70 min. […] The peak area of the peptide at each time interval was compared to the peak area of the peptide in t=0, as a measure of the relative peptide concentration.

Hut 78 cells = conditions: 0.1, 1, 10 and 100 μg/ml; 1, 2, 4 and 7 days post seeding
Method: Method: Hut 78 cells (0.5×10^6/ml) were cultured without or with 0.1, 1, 10 and 100 μg/ml of BCvir. The number of living cells was determined by staining with trypan blue 1, 2, 4 and 7 days post seeding,.

[1] = system: nuclear import of SV40-NLS-BSA (biotinylated BSA-NLS); assay: Quantitative ELISA-based nuclear import assay, inhibition of NLS-BSA (SV40-NLS-BSA) uptake in permeabilized Colo-205 cells; assay type: cell-based; set-up: key to Nuclear uptake of SV40-BSA: +: most of the cells in the field (more than 70-80%) did show nuclear uptake (presence of fluorescent dye within the nuclei); −: most of the cells in the field (more than 70-80%) did show nuclear uptake (their cytoplasm, and not the nuclei, were fluorescently labeled); conditions: for Nuclear uptake of SV40-BSA: in the presence of the free peptide, ELISA-based assay; for Nuclear entry (%) of SV40-NLS-BSA: WGA 0.6 mg/ml or Tat-NLS peptide 1 mg/ml preincubated 30 minutes, entry with cytosolic factors = 100%
Method: (§1) Nuclear import was quantitatively determined essentially as described before (Melchior, et al. (1993) J. Cell. Biol. 123 (6). 1649-1659), except that a suspension of Colo-205 cells was used instead of a suspension of HeLa cells and 500 nM biotinylated BSA-NLS were used as a transport substrate. The immunomodule strips were coated with rabbit anti-BSA serum instead of using the IgG fraction. The results given are an average of triplicate determination whose standard deviation never exceeded ±20%.
Nuclear uptake was determined by the ELISA-based assay, except where indicated. IC50 values were determined by using peptides and transport substrates in molar ratios between 500:1 and 0.005:1 respectively. Cysteine residues in all the peptides are not part of the original sequence and were added in order to conjugate them to BSA.
Inhibition of nuclear uptake was estimated by addition of the above listed peptides to a nuclear transport system using SV40-NLS-BSA as a transport substrate.
(§2) Nuclear transport using SV40-NLS-BSA and Tat-NLS-BSA as transport substrates was performed employing the in-vitro ELISA system.

[2] = system: nuclear import of Tat-NLS-BSA; assay: In-vitro ELISA nuclear transport with Tat-NLS-BSA as transport substrate; assay type: cell-based, human; conditions: WGA 0.6 mg/ml or Tat-NLS peptide 1 mg/ml preincubated 30 minutes; entry with cytosolic factors = 100%
Method: as §1
The entry of the conjugates into nuclei of permeabilized colo cells was estimated as described above. ATP was depleted, WGA (0.6 mg/ml) and Tat-NLS peptide (1 mg/ml) were preincubated for 30 minutes at room temperature with the permeabilized cells before adding the BSA conjugates.
as §2

[3] = system: nuclear import of VprN/VprC-BSA conjugate in permeabilized cells; assay: Nuclear import of Vpr peptide-BSA conjugates in permeabilized cells; assay type: cell-based
Source text: Viral protein r (Vpr), an HIV-1 auxiliary protein which mediates nuclear import of the viral preintegration complex (PIC), contains two regions, N- and C-terminal, which have been proposed to function as a nuclear localization signal (NLS). We have synthesized peptides corresponding to both regions (designated as VprN and VprC), conjugated them to bovine serum albumin (BSA), and tested their ability to mediate nuclear import in permeabilized cells.

[4] = system: translocation of FL-NLS-BSA into nuclei of digitonin-permeabilized HeLa cells; assay: Nuclear import estimated by fluorescence microscopy; assay type: cell-based; set-up: key: +: most of the cells in the field (more than 70-80%) did show nuclear uptake (presence of fluorescent dye within the nuclei); −: most of the cells in the field (more than 70-80%) did show nuclear uptake (their cytoplasm, and not the nuclei, were fluorescently labeled); conditions: in the presence of the free peptide; based on fluorescent microscopy observations (footnote 3)
Source text: HeLa cells were cultivated on 10 mm coverslips to subconfluent density and then permeabilized with digitonin as described before (Broder, et al. ibid). Linear peptides bearing the NLS signal of the SV40 large T-antigen were covalently attached to fluorescently labeled (with FITC) BSA molecules (Goldfarb, et al. (1986) Nature 322, 641-644) and translocation of the resulting fluorescently labeled-NLS-BSA molecules (FL-NLS-BSA) into nuclei of digitonin-permeabilized HeLa cells was followed by fluorescent microscopy observations, as described (Broder, et al. ibid).

[5] = SV40-NLS-BSA substrate, peptide:substrate molar ratios between 500:1 and 0.005:1
[6] = purified peptides, inhibition of nuclear import of NLS-BSA

Row | Compound | Nuclear uptake of SV40-BSA [1] | IC50 [1, 5] | other results
1 | CC(C)C[C@H](NC(=O)[C@H](CCCCN)NC(=O)CN1CCCCCCNC(=O)[C@H](C(C)C)NC(=O)CCCCC(=O)N[C@@H](CCCCN)C(=O)N[C@@H](CCCCN)C(=O)N[C@@H](CCCCN)C1=O)C(N)=O [BCvir] (KKK[N(6-aminohexyl)Gly]KL-NH2; linker N-4 via X1) |  |  | half-life (trypsin): 7 h; effect on growth rate of uninfected cells (Hut 78 cells): did not affect the growth rate
2 | NCCCC[C@H](NC(=O)CN1CCCCCCNC(=O)CNC(=O)CCCCC(=O)N[C@@H](CCCCN)C(=O)N[C@@H](CCCCN)C(=O)N[C@@H](CCCCN)C1=O)C(N)=O [peptide 19.4] |  |  | half-life (trypsin): 9 h
3 | CGPKNKRKV [SV40 mutant] | + |  | 
4 | CVKRKKKPG (Human Immunodeficiency Virus (HIV-1)) [SV40 reverse] | + |  | 
5 | C^7KRSMGGWSAIRERMRR^22 [Nef NLS] | − | 11 µM | 
6 | C^35RQARRNRRRRWRERQRQ^51 (N-terminal cysteine; UniProt P04618 35-51, looked up, fragment) [Rev NLS] | − | 347 µM | 
7 | C^48GRKKRRQRRRAHQN^61 (N-terminal cysteine; UniProt P04608 48-61, looked up, fragment) [Tat NLS] | − | 147 µM | Nuclear entry (%) of SV40-NLS-BSA [1]: 52%; Nuclear entry (%) of Tat-NLS-BSA [2]: 15.4%
8 | C^88EWRKKRYSTOV^98 [Vif 88-98 K91L] (CEWRLKRYSTQV; not fully specified; printed as C^88EWRKKRYSTOV^98 [Vif 88-98 K91L]) | + |  | 
9 | C^88EWRKKRYSTOV^98 [Vif 88-98] (CEWRKKRYSTQV; not fully specified; printed as C^88EWRKKRYSTOV^98 [Vif 88-98]; UniProt P69723 88-98, looked up, fragment) | − | 62 µM | 
10 | GKKKYKLKHC [HIV-MA NLS] |  |  | IC50 [1, 6]: 12 µM
11 | PKKKRKVC [SV40 large T-antigen NLS] | − | 0.02 µM | IC50 [1, 6]: 0.001 µM; inhibition of nuclear import of the VprN conjugate [3]: not inhibited
12 | ^30YVSGKARGWFYRHHY^44 [Vif 30-44] |  |  | Nuclear uptake of SV40-BSA [4]: +
13 | ^41RHHYESPHPRISSEV^55 [Vif 41-55] |  |  | Nuclear uptake of SV40-BSA [4]: +
14 | ^51ISSEVHIPLGDARLV^65 [Vif 51-65] |  |  | Nuclear uptake of SV40-BSA [4]: +
15 | ^78DWHLGQGV^85 (Human Immunodeficiency Virus (HIV-1)) [Vif 78-85] |  |  | Nuclear uptake of SV40-BSA [4]: +
16 | ^85VSIEWRKK^92 (UniProt P69723 85-92, looked up, fragment) [Vif 85-92] | − | 253 µM | 
17 | ^88EWRKKRYS^95 (Human Immunodeficiency Virus (HIV-1)) [Vif 88-95] | − |  | 
18 | wheat germ agglutinin [WGA] |  |  | Nuclear entry (%) of SV40-NLS-BSA [1]: 49.8%; Nuclear entry (%) of Tat-NLS-BSA [2]: 53.6%; inhibition of nuclear import of the VprN conjugate [3]: inhibited
